According to patent US20060079453A1, “Hla binding peptides and their uses” (priority 2002, published 2006):
Like-named read-outs stand apart in the source and are kept apart here. No end group written: not given here.

How the values were obtained:
Assay in all cases: biochemical
Type in all cases: binding
[1] = molecular target: HLA-DR DRB4*0101 (DR53) (Homo sapiens, UniProt P01903+P13762, G164S)
[2] = molecular target: HLA-DR DRB1*0301 (DR3) (Homo sapiens, UniProt P01903+P01911, A100K/A102G/A103R/A169T/F55Y/I96L/K41T/L162R/M171V/P40S/Q125H/Q178H/Q39Y/R42S/S66N/T106N/T262R/W38E/Y61H)
HLA-DR DRB1*0301 (DR3), sequence (P01903 26-254 limits assumed, other chains not shown): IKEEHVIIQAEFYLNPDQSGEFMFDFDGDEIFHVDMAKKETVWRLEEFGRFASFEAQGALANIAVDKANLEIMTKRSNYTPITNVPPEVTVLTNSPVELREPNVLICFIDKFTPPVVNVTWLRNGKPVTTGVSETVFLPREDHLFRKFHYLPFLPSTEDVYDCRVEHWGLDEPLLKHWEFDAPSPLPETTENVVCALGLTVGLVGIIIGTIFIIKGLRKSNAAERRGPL

[3] = molecular target: HLA-DR DRB3*0101 (DR52) (Homo sapiens, UniProt P01903+P79483)
[4] = molecular target: HLA-DR DRB5*0101 (DR51) (Homo sapiens, UniProt P01903+Q30154)
[5] = molecular target: HLA-DR DRB1*0901 (DR9) (Homo sapiens, UniProt P01903+P01911, A100R/A103E/D57H/D86V/F55Y/F60I/F76Y/I96F/K127E/L162R/M171V/P40D/Q125H/Q99R/R33Q/R42F/S133A/S66N/T210M/V115G/W38K/Y107V/Y59G/Y89S); conditions: DRB1 *0901
[6] = molecular target: HLA-DR DRB1*0401 (DR4) (Homo sapiens, UniProt P01903+P01911, A100K/A169T/F76Y/I96L/K127E/L162R/M171V/N62H/P40V/Q125Y/R42H/S133A/S149N/S66Y/V115G/V209L/W38E); conditions: DRB1 *0401
[7] = molecular target: HLA-DR DRB1*0101 (DR1) (Homo sapiens, UniProt P01903+P01911, A100R/D57E/F55L/F60I/F76Y/I96L/L162R/M171V/P40L/Q125E/R42F/V115G/Y59C); conditions: DRB1 *0101
[8] = molecular target: HLA-DR DRB1*1101 (DR11) (Homo sapiens, UniProt P01903+P01911, A100R/A169T/A87E/I96F/K41T/L162R/M171V/P40S/Q125H/Q178H/Q39Y/Q99D/R42S/S66Y/T262R/V115G/W38E)
HLA-DR DRB1*1101 (DR11), sequence (P01903 26-254 limits assumed, other chains not shown): as above

[9] = molecular target: HLA-DR DRB1*0701 (DR7) (Homo sapiens, UniProt P01903+P01911, A100R/A102G/A103Q/D57E/D86V/E43K/F76Y/K127E/L162R/M171V/P40G/Q125H/Q99D/R33Q/R42Y/R54Q/S133A/S66F/T210M/V115G/Y107V/Y59L/Y89S); conditions: DRB1 *0701
[10] = molecular target: HLA-DR DRB1*1501 (DR15) (Homo sapiens, UniProt P01903+P01911)
[11] = molecular target: HLA-DR DRB1*0802 (DR8) (Homo sapiens, UniProt P01903+P01911, A100R/A103L/A169T/F76Y/H45Y/I96F/K41T/L162R/M171V/P40S/Q125H/Q178H/Q39Y/Q99D/R218S/R42G/S66Y/V115G/W38E)
[12] = molecular target: HLA-DR DRB1*1302 (DR13) (Homo sapiens, UniProt P01903+P01911, A100E/A169T/K41T/L162R/M171V/P40S/Q125H/Q178H/Q39Y/Q99D/R42S/S66N/T262R/V115G/W38E/Y61H)
HLA-DR DRB1*1302 (DR13), sequence (P01903 26-254 limits assumed, other chains not shown): as above

Compound	IC50 ([1]; DRB4 *0101) [µM]	IC50 [2] [µM]	IC50 [3] [µM]	IC50 ([4]; DRB5 *0101) [µM]	IC50 [5] [µM]	IC50 [6] [µM]	IC50 ([8]; DRB1 *1101) [µM]	IC50 ([10]; DRBI *1501) [µM]	IC50 [11] [µM]	IC50 ([12]; DRBI *1302) [µM]	IC50 ([3]; read-out: DRB3 *0101) [µM]	IC50 ([4]; read-out: DRB5 *0101) [µM]	IC50 ([8]; read-out: DRB1 *1101) [µM]	also measured
CC[C@H](C)[C@H](NC(=O)[C@@H](NC(=O)[C@@H]1CCCN1C(=O)CN)C(C)C)C(=O)N1CCC[C@H]1C(=O)N[C@@H](CCC(N)=O)C(=O)N[C@@H](CC(=O)O)C(=O)N[C@@H](Cc1c[nH]c2ccccc12)C(=O)N[C@@H](CO)C(=O)N[C@H](C(=O)N[C@@H](CCC(=O)O)C(=O)N[C@@H](CS)C(=O)N[C@@H](CCSC)C(=O)N[C@H](C(=O)N[C@H](C(=O)O)[C@@H](C)O)[C@@H](C)O)[C@@H](C)O	0.961	52.1	20.3	–	–	–	–	–	–	–	–	–	–	–
CC[C@H](C)[C@H](NC(=O)[C@@H](N)CCC(N)=O)C(=O)N[C@@H](Cc1ccc(O)cc1)C(=O)N[C@H](C(=O)N[C@@H](C)C(=O)N[C@@H](C)C(=O)N[C@@H](Cc1ccccc1)C(=O)N[C@H](C(=O)N[C@H](C(=O)N[C@@H](CCC(N)=O)C(=O)N[C@@H](C)C(=O)N[C@@H](C)C(=O)N[C@@H](C)C(=O)N[C@@H](CCC(=O)O)C(=O)N[C@H](C(=O)O)[C@@H](C)O)C(C)C)[C@@H](C)O)C(C)C	0.05	26.6	–	0.216	0.065	0.0016	0.034	0.252	0.102	–	–	–	–	IC50 [7]: 0.0016 µM; IC50 [9]: 0.324 µM
CC[C@H](C)[C@H](NC(=O)[C@H](CCC(=O)O)NC(=O)[C@H](CC(N)=O)NC(=O)CNC(=O)[C@H](CC(=O)O)NC(=O)[C@H](CCC(=O)O)NC(=O)[C@H](CC(N)=O)NC(=O)[C@@H](NC(=O)[C@@H](NC(=O)[C@H](CO)NC(=O)[C@@H](NC(=O)[C@@H](N)Cc1ccc(O)cc1)[C@@H](C)CC)[C@@H](C)CC)[C@@H](C)CC)C(=O)N[C@@H](Cc1ccccc1)C(=O)N[C@@H](CC(N)=O)C(=O)N[C@H](C(=O)O)[C@@H](C)O	3.71	0.397	–	73	83.1	0.624	> 18.9	2.71	> 123	0.346	–	–	–	IC50 [9]: 23.7 µM
ALQAQKEAISPPDAA	–	–	–	–	–	–	–	–	–	–	> 91.7	–	–	–
AVGLPSIPVHPIGYY	–	–	–	–	–	–	–	–	–	–	> 11.8	38.5	33.3	IC50 ([1]; read-out: DRB4 *0101): 5.39 µM; IC50 ([10]; read-out: DRBI *1501): 0.518 µM
AWYAWRNRCK	–	–	–	–	–	–	–	–	–	–	> 11.1	0.044	> 5	–
Ac-NPDAENWNSQFEILEDAA	–	–	1	50	–	–	> 33.3	> 10	–	> 10	–	–	–	–
DDYVKQYTKQYTKQNTLKK	–	–	> 11.1	0.035	–	0.16	> 1.11	–	–	–	–	–	–	–
DKAVSGLRSLTTLLR	2.01	4.33	–	0.104	> 78.9	1.01	0.052	0.06	16.4	0.187	–	–	–	IC50 [7]: 0.013 µM
DSSLEGNYTLRVDCT	–	–	–	–	–	–	–	–	–	–	0.576	16.8	> 50	IC50 ([12]; read-out: DRBI *1302): 0.0076 µM; IC50 ([10]; read-out: DRBI *1501): 1.2 µM
